Read-outs that look alike come from different tables or passages of the source.
Columns and labels:
[1] = tested on: pE-selectin-Luc (E-selectin promoter); assay: pE-selectin-Luc reporter gene assay in TNF-induced L929sA cells; type: cell-based, mouse; conditions: 10 microM; TNF-induced; FIG. 1
Text: L929sA mouse fibroblast cells were stably transfected with pE-selectine-Luc (also referred to as pELAM-luc) by the calcium phosphate precipitation procedure described by De Bosscher et al. in Proc. Natl. Acad. Sci. USA (1997) 94, 13504-13509. The co-transfected plasmid pPGKβGeobpA, conferring resistance to G418 and expressing constitutive β-galactosidase enzymatic activity, was used as an internal control. L929sA cells were transiently transfected by the DEAE-dextran transfection method described by De Bosscher et al. (cited supra).
Recombinant murine tumor necrosis factor (TNF) was produced according to a method standard in the art. Dexamethasone (hereinafter abbreviated as DEX) commercially available from Sigma, and 2-(4-acetoxyphenyl)-2-chloro-N-methyl-ethylammonium chloride (hereinafter abbreviated as compound A) was synthesized according to Louw et al. in Biochemical Pharmacology (1997) 53, 189-197). A stock solution was prepared in ethanol (for DEX) or DMSO (for both comparative compound A and for the compound of example 6 according to this invention, i.e. 1-[4-(benzoyloxy)phenyl]-2-[(tert-butoxy-carbonyl)-methylamino]ethyl-1H-imidazole-1-carboxylate), aliquoted and stored at −70° C.
Induction was performed in triplicate for each independent experiment, which was carried out at least twice. Induction with DEX, compound A, and for the compound of example 6 according to this invention at 1 μM, 10 μM or respectively any other indicated concentration were performed at −2 hours for a total of 8 hours, while TNF (2000 IU/ml) was added at time point zero and left on the cells for 6 hours. After induction, cells were lysed with a lysis buffer (commercially available from Tropix, Bedford, Massachussets) and samples were assayed according to the manufacturer's instructions (Promega Biotech).
In order to investigate whether the inhibitory effect of compound A or the compound of example 6 according to this invention is directed at the transcriptional level of NF-κB-driven genes, the NF-κB-dependent physiological promoter construct, pE-selectin-Luc stably integrated into L929sA cells, was tested. […] DEX-mediated and compound A-mediated inhibition of TNF-induced gene expression were used as controls (FIG. 1). In the appended figures, NI stands for non-induced (either in presence of solvent controls like ethanol or DMSO).

[2] = tested on: multiple myeloma cells U266; assay: MTT test, cell viability of U266 cells; type: cell-based, human
Experimental: (§1) The MTT test is a standard assay addressing cell toxicity of a compound. It is based on the principle that after 3-4 hours of cell incubation with MTT (3-(4,5-dimethylthiazole-2-yl)-2,5-diphenyl tetrazolium bromide) so-called purple formazan crystals develop in living and early apoptotic cells. Dead cells don't produce formazan crystals.
(§2) Different cell lines were tested. Unless indicated differently, A549 human lung epithelial cells (derived from lung carcinoma) and L929sA murine fibroblast cells were cultured in DMEM with 10% FCS, 100 U/ml penicillin and 100 μg/ml streptomycin. Unless indicated differently, the human multiple myeloma cell lines L363, U266 and MM1.S were cultured in RPMI 1640 with Glutamax-I, supplemented with 10% FCS, 100 U/ml penicillin and 100 μg/ml streptomycin. Cells were seeded at 5000 cells/well (for adherent A549 and L929sA cells) or at 10000 cells/well (for the multiple myeloma lines in suspension) in 96 well plates. Cells were incubated in the presence of the respective synephrine compounds or vehicle (EtOH; for control test) in a final volume of 0.2 ml for 24 or 48 hours at 37° C. Subsequently, 20 μl of MTT solution (5 mg/ml in phosphate-buffered saline) was added to each well. After 4 hours incubation at 37° C., 80 μl of the extraction buffer (10% SDS, 0.01 M HCl) was added. After overnight incubation at room temperature, the optical densities at 590 nm were measured. Results are illustrated in FIGS. 2 to 6 and are expressed as percentage of viable cells as compared to vehicle-treated controls.
The MTT test was further extended to include alternative synephrine derivatives and a range of multiple myeloma cell lines for which the results are illustrated by FIGS. 3A, 3B and 4A. Human multiple myeloma cell lines L363, U266 and MM1.S were cultured in RPMI 1640 with Glutamax-I, supplemented with 10% FCS, 100 U/ml penicillin and 100 μg/ml streptomycin. Cells were seeded at 10000 cells/well in 96 well plates. Cells were incubated in the presence of test compounds or vehicle in a final volume of 0.2 ml for 24 or 48 hours at 37° C. The test compounds included in the test were the synephrine derivatives CpdA, Naphth, Benz and Isobut, and DEX as a comparative example. Subsequently, 20 μl of MTT solution (5 mg/ml in phosphate-buffered saline) was added to each well. After 4 hours incubation at 37° C., 80 μl of the extraction buffer (10% SDS, 0.01 M HCl) was added. After 48 hours incubation at room temperature, the optical densities at 590 nm were measured. Results are expressed as percentage of viable cells as compared to vehicle-treated controls.

[3] = MTT test, cell viability of A549 cells; type: cell-based, human; conditions: human, A549 lung epithelial (carcinoma) cells, read-out: Block of A549 cell viability
Experimental: as §1, §2
In a further MTT test, the activity of the synephrine derivatives on the inhibition of cell viability of non-immune cells was measured. […] Tests were performed for 24 hours and for 48 hours. The results are illustrated by FIGS. 5A and 5B for L929 cells, and by FIGS. 6A and 6B for A549 cells. It was observed that CpdA at 10^−5 M blocked cell viability of L929sA and A549 for not more than 10%.

MM1.S cell lines = assay: Annexin V/PI assay in MM1.S cells; type: cell-based, human; conditions: 10^-5 M, FIG. 13
Experimental: 1. […] Procedure: • Human multiple myeloma cell lines L363, U266, MM1.S and MMR.1 are cultured in RPMI 1640 with Glutamax-I, supplemented with 10% FCS, 100 U/ml penicillin and 100 μg/ml streptomycin. Cells are counted and resuspended in fresh medium at a concentration of 1×10^6/ml. Next, 1 ml of cell suspension is transferred to 5 ml culture tubes in the presence of test compounds (DEX, CpdA, CpdA analogues: 10^−7 to 10^−4 M) or vehicle (EtOH) and incubated for 24 or 48 hours at 37° C. • Double-staining of the cells with PI and annexin V is performed according to the instructions of the Annexin V kit (BD Biosciences). • Double-stained cells are analyzed by flow cytometry. […] Graphs are represented as the ratio of early apoptotic cells versus late apoptotic cells (a) or as total % of living cells (b).

Structure (SMILES): CNCC(Cl)c1ccc(OC(C)=O)cc1.Cl (stereo not drawn) [CpdA, 2-(4-acetoxyphenyl)-2-chloro-N-methyl-ethylammonium chloride]
- Inhibition of the expression of E-selectin [1]: inhibit the expression of E-selectin
- Cell killing of U266 cells ([2]; 10^−4M, serum-containing medium, FIG. 2B): 60%
- Cell killing of U266 cells ([2]; 10^−5M, growth medium with 10% fetal calf serum, 48 hours, FIG. 2B): 10%
- Cell killing of U266 cells ([2]; 10^−5M, serum-free growth medium, 24 hours, FIG. 2A): 60%
- Effect on cell viability of U266 cells ([2]; 10^−6 to 10^−5 M, 10% FCS, FIG. 3A): 15-20%
- cytotoxicity at 100 µM ([2]; Homo sapiens, U-266, 10^−4 M, 10% FCS, FIG. 3A, read-out: Block of U266 cell viability / cell killing): 40%
- cytotoxicity at 100 µM ([2]; Homo sapiens, U-266, 10^−4M, serum-free medium, FIG. 2A, read-out: Cell killing / reduction of viability of U266 cells): 80%
- cytotoxicity at 1 µM ([2]; Homo sapiens, U-266, 10^−6M, serum-free growth medium, 24 hours, FIG. 2A, read-out: Inhibition of viability of U266 cells): 40%
- cytotoxicity at 24 h ([3]; 10^−4 M, 24 hours, FIG. 6A): 20%
- cytotoxicity at 48 h ([3]; 10^−4 M, 48 hours, FIG. 6B): 40%
- cytotoxicity ([3]; 10^−5 M, 24 hours and 48 hours, FIGS. 6A and 6B): ≤ 10%
- Apoptosis (Annexin V/PI staining) (MM1.S cell lines): able to mediate apoptosis in the MM1.S cell lines at 10-5 M, to a much higher extent than Dex

Source: US8039501B2, “Synephrine derivatives useful as anti-inflammatory agents” (Universiteit Gent, priority 2005, dated 2011)
